Measured values: patent US20230150920A1, “SALTS AND SOLID FORMS OF 4-BROMO-2,5-DIMETHOXYPHENETHYLAMINE” (priority 2021, published 2023)
Where a name gives a salt, the structure may show the parent alone.

Tests used:
[1] = Solubility estimate by adding solvent aliquots to weighed solid, dissolution judged visually; conditions: thermodynamic from solid
[2] = Estimated solubilities of 2C-B HCl in solvents; conditions: thermodynamic from solid
[3] = Dynamic vapor sorption/desorption (DVS), hygroscopicity; assay type: physicochemical
Protocol: The active pharmaceutical ingredient (API), 4-bromo-2,5-dimethoxyphenethylamine hydrochloride, is characterized to evaluate its physical properties. The evaluation is performed by X-ray powder diffraction (XRPD), polarized light microscopy (PLM), differential scanning calorimetry (DSC), thermogravimetry (TG), dynamic vapor sorption/desorption (DVS), and/or solubility testing in organic solvents, water, and mixed solvent systems. XRPD data are used to assess crystallinity. PLM data are used to evaluate crystallinity and particle size/morphology. DSC data are used to evaluate melting point, thermal stability, and crystalline form conversion. TG data are used to evaluate if the API is a solvate or hydrate, and to evaluate thermal stability. DVS data are used to evaluate hygroscopicity of the API and if hydrates can be formed at high relative humidity.
The form characterized in FIGS. 1 and 2 is designated as Form A herein. […] A sharp endotherm at 238° C. in the DSC thermogram is attributed to melting.

[4] = Dynamic vapor sorption (DVS) with XRPD of the post-DVS sample; assay type: physicochemical
Protocol: Dynamic Vapor Sorption (DVS) analysis was carried out using a TA Instruments Q5000 Dynamic Vapor Sorption analyzer. The instrument was calibrated with standard weights and a sodium bromide standard for humidity. Approximately 10-25 mg of sample was loaded into a metal-coated quartz pan for analysis. The sample was analyzed at 25° C. with a maximum equilibration time of one hour in 10% relative humidity (RH) steps from 5 to 95% RH (adsorption cycle) and from 95 to 5% RH (desorption cycle). The movement from one step to the next occurred either after satisfying the equilibrium criterion of 0.01% weight change or, if the equilibrium criterion was not met, after one hour. The percent weight change values were calculated using Microsoft Excel.
(§1) The DVS analysis was carried out using a TA Instruments Q5000 Dynamic Vapor Sorption analyzer. 13.5 mg of sample was loaded into a metal-coated quartz pan for analysis. After equilibration to 5% relative humidity (RH), the sample was analyzed at 25° C. in 10% RH steps from 5 to 95% RH (adsorption cycle) and from 95 to 5% RH (desorption cycle). The movement from one step to the next occurred either after satisfying the equilibrium criterion of 0.01% weight change in 5 minutes or, if the equilibrium criterion was not met, after 90 minutes. The percent weight change values are calculated using Microsoft Excel®.
as §1, with “DVS analyses were” for “DVS analysis was”, “analyzer. Approximately 7-11” for “analyzer. 13.5”, “equilibration at” for “equilibration to”, “values were” for “values are”
as §1, with “analyzer. Approximately 2” for “analyzer. 13.5”, “equilibration at” for “equilibration to”, “values were” for “values are”

[5] = Protocol: Solubilities in water were estimated for the majority of the salts identified during screening. The experiments were carried out by adding water in aliquots to weighed portions of solid. […] Values are reported as “≥” if complete dissolution was observed upon the first aliquot.
[6] = Deliquescence at 75% RH at ambient temperature; assay type: physicochemical
[7] = MeOH/CHCl3 50/50, organic solvent or mixture
[8] = acetone, organic solvent or mixture
[9] = acetone/H2O 80/20, organic solvent or mixture

In the case of COc1cc(CCN)c(OC)cc1Br [2C-B.HCl, 4-bromo-2,5-dimethoxyphenethylamine hydrochloride], the solubility [1, 7] is reported as 41 mg/mL, the solubility [1, 8] is reported as < 2 mg/mL and the solubility [1, 9] is reported as > 79 mg/mL. For the same compound, the solubility ([1]; acetonitrile, organic solvent or mixture) was < 1 mg/mL, the solubility ([1]; ethanol, organic solvent or mixture) was 13 mg/mL and the solubility ([1]; ethyl acetate, organic solvent or mixture) was < 2 mg/mL. The solubility ([1]; isopropanol, organic solvent or mixture) was < 2 mg/mL, the solubility ([1]; methanol, organic solvent or mixture) was 41 mg/mL and the solubility ([1]; tetrahydrofuran, organic solvent or mixture) was < 2 mg/mL. It also gave a solubility ([1]; water) of 34 mg/mL.
In the case of COc1cc(CCN)c(OC)cc1Br.Cl [2C-B HCl, 4-bromo-2,5-dimethoxyphenethylamine HCl], the solubility ([2]; ACN, organic solvent or mixture) is reported as < 1 mg/mL, the solubility ([2]; EtOAc, organic solvent or mixture) is reported as < 2 mg/mL and the solubility ([2]; EtOH, organic solvent or mixture) is reported as 13 mg/mL. The solubility ([2]; H2O, water) was 34 mg/mL, the solubility ([2]; IPA, organic solvent or mixture) was < 2 mg/mL and the solubility ([2]; MeOH, organic solvent or mixture) was 41 mg/mL. The solubility [2, 7] was 41 mg/mL, the solubility ([2]; THF, organic solvent or mixture) was < 2 mg/mL and the solubility [2, 8] was < 2 mg/mL. The solubility [2, 9] was ≥ 79 mg/mL, the “DVS Sorption: weight gain” value ([3]; 5-95% RH) was 5-95% RH: 0.9% gain and the “DVS Desorption: weight loss” value ([3]; 95-5% RH) was 95-5% RH: 1.0% loss. The “post-DVS XRPD” value ([4]; solid form after DVS cycle) was “Form A”.
In the case of 2C-B malate, the “Water uptake (5-85% RH) %” value ([3]; 5-85% RH part of sorption) is reported as 0.6%, the “Water uptake (85-95% RH) %” value ([3]; 85-95% RH part of sorption) is reported as “(5-85); 1 (85-95) %” and the “Hygroscopicity: weight gain” value ([3]; <85% RH) is reported as “RH: 0.6%”. The “Hygroscopicity: weight gain” value ([3]; >85% RH) was “RH: 1.0% gain”, the Hygroscopicity ([3]; grade in words, from DVS) was “Slightly” and the “Water uptake (5-95% RH) %” value ([3]; total, 5-95% RH) was 1.6%. For the same compound, the “Kinetic water solubility” value [5] was 6 mg/mL, the “estimated kinetic solubility in water” value ([5]; room temperature, visually determined) was 6 mg/mL and the “aqueous solubility (kinetic)” value ([5]; water, kinetic estimate) was 6 mg/mL aqueous. For the same compound, the “Estimated kinetic aqueous solubility” value ([5]; water, room temperature, * = a few particulates/flakes remaining (see comments)) was 6 mg/mL, the deliquescence ([6]; at 75% RH) was “Did not deliquesce” and the deliquescence ([6]; several days at 75% RH at ambient temperature) was “not observed”. For the same compound, the “hygroscopicity based on DVS data” value ([4]; 25° C., 5 to 95% RH) was “slightly hygroscopic”, the “moisture gain by DVS” value ([4]; 25° C., adsorption 5 to 95% RH) was 1.6% and the “moisture gain by DVS, equivalent moles of water” value ([4]; 25° C., adsorption 5 to 95% RH) was “approximately 0.4 moles”. For the same compound, the “post-DVS XRPD result” value ([4]; XRPD of the post-DVS sample) was “Consistent with Malate”, the “DVS desorption weight loss, 85-5% RH” value ([4]; desorption 85-5% RH) was 85-5% RH: 0.6% loss and the “DVS desorption weight loss, 95-85% RH” value ([4]; desorption 95-85% RH) was 95-85% RH: 1.0% loss. For the same compound, the “behaviour on desorption / form change by XRPD of post-DVS sample” value ([4]; desorption 95 to 5% RH) was “all the gained moisture is lost without form change”, the “DVS desorption total loss” value ([4]; desorption, total) was “Total loss: 1.6%” and the “DVS sorption weight gain, 5-85% RH” value ([4]; sorption 5-85% RH) was 5-85% RH: 0.6% gain. For the same compound, the “DVS sorption weight gain, 85-95% RH” value ([4]; sorption 85-95% RH) was 85-95% RH: 1.0% gain and the “DVS sorption total gain” value ([4]; sorption, total) was “Total gain: 1.6%”.
